Source: patent US12410160B2 (Gilead Sciences, Inc., priority 2021, dated 2025)

Tests used:
human KHK-C = human KHK-C (Homo sapiens (Human), UniProt P50053); experiment: KHK Biochemical Assay (IC50), ADP-Glo, KHK-C; settings: average of at least two separate assays
Method in brief: (§1)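 ADP-Glo luminescence measured ADP made over a 4 h room-temperature reaction of ATP plus fructose, started after 30 min compound–enzyme pre-incubation. Buffer: 50 mM Hepes pH 7.4, 140 mM KCl, 5 mM MgCl2, 0.01% Triton-X. Enzyme was His-tagged, BL21 (DE3)-expressed, Ni-NTA-purified; compounds in 1:3 DMSO dilution series.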

human KHK-A = human KHK-A (Homo sapiens (Human), UniProt P50053); experiment: KHK Biochemical Assay (IC50), ADP-Glo, KHK-A; settings: average of at least two separate assays
Method in brief: as §1

Sequence of human KHK-A (P50053 other isoform, or with tags, fused parts or gaps): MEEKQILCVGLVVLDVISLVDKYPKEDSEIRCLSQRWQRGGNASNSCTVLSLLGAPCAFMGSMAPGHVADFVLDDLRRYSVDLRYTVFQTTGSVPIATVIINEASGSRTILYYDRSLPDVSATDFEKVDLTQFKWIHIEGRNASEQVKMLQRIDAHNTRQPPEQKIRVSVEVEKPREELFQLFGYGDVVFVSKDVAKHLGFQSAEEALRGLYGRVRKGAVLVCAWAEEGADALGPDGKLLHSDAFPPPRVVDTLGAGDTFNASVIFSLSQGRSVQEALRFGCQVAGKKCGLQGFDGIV
Sequence of human KHK-C (P50053 whole entry): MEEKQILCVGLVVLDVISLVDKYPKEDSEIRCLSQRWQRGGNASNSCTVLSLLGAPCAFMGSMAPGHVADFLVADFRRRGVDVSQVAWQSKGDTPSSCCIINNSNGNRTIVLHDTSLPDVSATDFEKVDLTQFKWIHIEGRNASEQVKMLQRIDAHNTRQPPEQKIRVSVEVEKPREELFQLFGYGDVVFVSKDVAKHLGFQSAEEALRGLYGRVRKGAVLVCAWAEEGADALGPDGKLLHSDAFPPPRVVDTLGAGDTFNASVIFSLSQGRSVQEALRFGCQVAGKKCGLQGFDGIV

| Compound | IC50 (human KHK-C) | IC50 (human KHK-A) | IC50 (human KHK-C; ADP-Glo) | IC50 (human KHK-A; ADP-Glo) |
| --- | --- | --- | --- | --- |
| COc1cc(-c2nc(N3C[C@@H](O)[C@@H]3C)nc3c2CCC3(F)F)cc(S(C)(=N)=O)c1 (stereo partly drawn) [Example 719, (3-(7,7-difluoro-2-((2S,3R)-3-hydroxy-2-methylazetidin-1-yl)-6,7-dihydro-5H-cyclopenta[d]pyrimidin-4-yl)-5-methoxyphenyl)(imino)(methyl)-λ^6-sulfanone] | 21.7 nM | 32.1 nM | – | – |
| Cc1cc(-c2nc(N3C[C@@H](O)[C@@H]3C)nc3c2CCC3(F)F)cc(S(C)(=N)=O)c1 (stereo partly drawn) [Example 720, (3-(7,7-difluoro-2-((2S,3R)-3-hydroxy-2-methylazetidin-1-yl)-6,7-dihydro-5H-cyclopenta[d]pyrimidin-4-yl)-5-methylphenyl)(imino)(methyl)-λ^6-sulfanone] | 8.8 nM | 11.6 nM | – | – |
| C[C@H]1[C@H](O)CN1c1nc(-c2ccc(C(F)F)c(S(C)(=N)=O)c2)c2c(n1)C(F)(F)CC2 (stereo partly drawn) [Example 721, (5-(7,7-difluoro-2-((2S,3R)-3-hydroxy-2-methylazetidin-1-yl)-6,7-dihydro-5H-cyclopenta[d]pyrimidin-4-yl)-2-(difluoromethyl)phenyl)(imino)(methyl)-λ^6-sulfanone] | 23.2 nM | 28.3 nM | – | – |
| NC1(c2ccc(-c3nc(N4CC[C@@H]4C(F)(F)F)nc4c3CCC4(F)F)cc2)CCS(=O)(=O)CC1 [Example 738, (R)-4-amino-4-(4-(7,7-difluoro-2-(2-(trifluoromethyl)azetidin-1-yl)-6,7-dihydro-5H-cyclopenta[d]pyrimidin-4-yl)phenyl)tetrahydro-2H-thiopyran 1,1-dioxide] | 2 nM | 2 nM | – | – |
| COC(=O)NC1COc2cc(-c3nc(N4C[C@@H](O)[C@@H]4C)nc4c3CCC4(F)F)cc(OC)c21 (stereo partly drawn) [Example 824, Methyl N-[6-[7,7-difluoro-2-[(2S,3R)-3-hydroxy-2-methyl-azetidin-1-yl]-5,6-dihydrocyclopenta[d]pyrimidin-4-yl]-4-methoxy-2,3-dihydrobenzofuran-3-yl]carbamate] | – | – | 8.6 nM | 91.6 nM |
| COc1cc(-c2nc(N3CC[C@@H]3C(F)(F)F)nc3c2CCC3(F)F)ccc1C1(N)COC1 [Example 837, (R)-3-(4-(7,7-difluoro-2-(2-(trifluoromethyl)azetidin-1-yl)-6,7-dihydro-5H-cyclopenta[d]pyrimidin-4-yl)-2-methoxyphenyl)oxetan-3-amine] | – | – | 0.7 nM | 1 nM |
| C[C@H]1[C@H](O)CN1c1nc(-c2ccc(C3(N)CCOCC3)cc2)c2c(n1)C(F)(F)CC2 [Example 838, (2S,3R)-1-(4-(4-(4-aminotetrahydro-2H-pyran-4-yl)phenyl)-7,7-difluoro-6,7-dihydro-5H-cyclopenta[d]pyrimidin-2-yl)-2-methylazetidin-3-ol] | – | – | 4.1 nM | 4.8 nM |
| C[C@H]1CCN1c1nc2c(c(-c3ccc(OCc4ccccc4)c(S(C)(=N)=O)c3)n1)CCC2 (stereo partly drawn) [Example 839, (2-(benzyloxy)-5-(2-((S)-2-methylazetidin-1-yl)-6,7-dihydro-5H-cyclopenta[d]pyrimidin-4-yl)phenyl)(imino)(methyl)4^6-sulfanone] | – | – | 15.9 nM | 15.8 nM |
| COc1ccc(-c2nc(N3CC[C@@H]3C)nc3c2CCC3)cc1S(=N)(=O)C1CCOCC1 (stereo partly drawn) [Example 840, imino(2-methoxy-5-(2-((S)-2-methylazetidin-1-yl)-6,7-dihydro-5H-cyclopenta[d]pyrimidin-4-yl)phenyl)(tetrahydro-2H-pyran-4-yl)-λ^6-sulfanone] | – | – | 26.3 nM | 7.7 nM |
| C[C@H]1CCN1c1nc2c(c(-c3ccc(C(N)=O)c(Cc4ccccc4)c3)n1)CCC2 [Example 841, (S)-2-benzyl-4-(2-(2-methylazetidin-1-yl)-6,7-dihydro-5H-cyclopenta[d]pyrimidin-4-yl)benzamide] | – | – | 40.5 nM | 28.1 nM |
| C[C@H]1CCN1c1nc2c(c(-c3ccc(C(N)=O)c(SCc4ccccc4)c3)n1)CCC2 [Example 842, (S)-2-(benzylthio)-4-(2-(2-methylazetidin-1-yl)-6,7-dihydro-5H-cyclopenta[d]pyrimidin-4-yl)benzamide] | – | – | 576 nM | 304 nM |
| C[C@H]1CCN1c1nc2c(c(-c3ccc(C(N)=O)c(C(=O)c4ccccc4)c3)n1)CCC2 [Example 843, (S)-2-benzoyl-4-(2-(2-methylazetidin-1-yl)-6,7-dihydro-5H-cyclopenta[d]pyrimidin-4-yl)benzamide] | – | – | 80.8 nM | 130 nM |
| COc1ccc(-c2nc(N3CC[C@@H]3C)nc3c2CCC3)cc1S(=N)(=O)CC1COCOC1 (stereo partly drawn) [Example 844, ((1,3-dioxan-5-yl)methyl)(imino)(2-methoxy-5-(2-((S)-2-methylazetidin-1-yl)-6,7-dihydro-5H-cyclopenta[d]pyrimidin-4-yl)phenyl)-λ^6-sulfanone] | – | – | 8.5 nM | 2.5 nM |
| COc1ccc(-c2nc(N3CC[C@@H]3C)nc3c2CCC3)cc1S(=N)(=O)c1ccc(C#N)c(Cl)c1 (stereo partly drawn) [Example 845, 2-chloro-4-(2-methoxy-5-(2-((S)-2-methylazetidin-1-yl)-6,7-dihydro-5H-cyclopenta[d]pyrimidin-4-yl)phenylsulfonimidoyl)benzonitrile] | – | – | 182 nM | 47 nM |
| COc1ccc(-c2nc(N3CC[C@@H]3C)nc3c2CCC3)cc1S(=N)(=O)c1ccc(C#N)cc1C (stereo partly drawn) [Example 846, 4-(2-methoxy-5-(2-((S)-2-methylazetidin-1-yl)-6,7-dihydro-5H-cyclopenta[d]pyrimidin-4-yl)phenylsulfonimidoyl)-3-methylbenzonitrile] | – | – | 46.1 nM | 33.6 nM |
| C[C@H]1CCN1c1nc2c(c(-c3cccc(S(=N)(=O)c4ccc(C#N)cc4C4CC4)c3)n1)CCC2 (some centres unmarked) [Example 847] | – | – | 118 nM | 200 nM |
| COc1cc(S(=N)(=O)c2cccc(-c3nc(N4CC[C@@H]4C)nc4c3CCC4)c2)ccc1C#N (stereo partly drawn) [Example 848, 2-methoxy-4-(3-(2-((S)-2-methylazetidin-1-yl)-6,7-dihydro-5H-cyclopenta[d]pyrimidin-4-yl)phenylsulfonimidoyl)benzonitrile] | – | – | 186 nM | 249 nM |
| COc1ccc(-c2nc(N3CC[C@@H]3C)nc3c2CCC3)cc1S(=N)(=O)c1ccc(C#N)cc1Cl (stereo partly drawn) [Example 849, 3-chloro-4-(2-methoxy-5-(2-((S)-2-methylazetidin-1-yl)-6,7-dihydro-5H-cyclopenta[d]pyrimidin-4-yl)phenylsulfonimidoyl)benzonitrile] | – | – | 25.4 nM | 16.3 nM |
| COc1cc(S(=N)(=O)c2cc(-c3nc(N4CC[C@@H]4C)nc4c3CCC4)ccc2OC)ccc1C#N (stereo partly drawn) [Example 850, 2-methoxy-4-(2-methoxy-5-(2-((S)-2-methylazetidin-1-yl)-6,7-dihydro-5H-cyclopenta[d]pyrimidin-4-yl)phenylsulfonimidoyl)benzonitrile] | – | – | 141 nM | 59.6 nM |

The remaining lines, values ahead:

| IC50 (human KHK-C) | IC50 (human KHK-A) | IC50 (human KHK-C; ADP-Glo) | IC50 (human KHK-A; ADP-Glo) | Compound |
| --- | --- | --- | --- | --- |
| – | – | 17.8 nM | 10.1 nM | COc1ccc(-c2nc(N3CC[C@@H]3C)nc3c2CCC3)cc1S(=N)(=O)c1ccc(C#N)cc1 (stereo partly drawn) [Example 851, 4-(2-methoxy-5-(2-((S)-2-methylazetidin-1-yl)-6,7-dihydro-5H-cyclopenta[d]pyrimidin-4-yl)phenylsulfonimidoyl)benzonitrile] |
| – | – | 18.9 nM | 21.8 nM | C[C@H]1CCN1c1nc2c(c(-c3ccc4[nH]cnc4c3)n1)CCC2 [Example 852, (S)-5-(2-(2-methylazetidin-1-yl)-6,7-dihydro-5H-cyclopenta[d]pyrimidin-4-yl)-1H-benzo[d]imidazole] |
| – | – | 35.3 nM | 73.2 nM | C[C@H]1CCN1c1nc2c(c(-c3ccc4ncn(C)c4c3)n1)CCC2 [Example 853, (S)-1-methyl-6-(2-(2-methylazetidin-1-yl)-6,7-dihydro-5H-cyclopenta[d]pyrimidin-4-yl)-1H-benzo[d]imidazole] |
| – | – | 442 nM | 543 nM | C[C@H]1CCN1c1nc2c(c(-c3ccc4c(c3)CCCCC4NS(C)(=O)=O)n1)CCC2 (stereo partly drawn) [Example 854, N-(2-(2-((S)-2-methylazetidin-1-yl)-6,7-dihydro-5H-cyclopenta[d]pyrimidin-4-yl)-6,7,8,9-tetrahydro-5H-benzo[7]annulen-5-yl)methanesulfonamide] |
| – | – | 80.5 nM | 84.9 nM | C[C@H]1CCN1c1nc2c(c(-c3ccc4c(c3)NC(=O)CNC4)n1)CCC2 [Example 855, (S)-8-(2-(2-methylazetidin-1-yl)-6,7-dihydro-5H-cyclopenta[d]pyrimidin-4-yl)-1,3,4,5-tetrahydro-2H-benzo[e][1,4]diazepin-2-one] |
| – | – | 175 nM | 143 nM | C[C@H]1CCN1c1nc2c(c(-c3ccc4c(c3)N(C)C(=O)CNC4)n1)CCC2 [Example 856, (S)-1-methyl-8-(2-(2-methylazetidin-1-yl)-6,7-dihydro-5H-cyclopenta[d]pyrimidin-4-yl)-1,3,4,5-tetrahydro-2H-benzo[e][1,4]diazepin-2-one] |
| – | – | 149 nM | 141 nM | C[C@H]1CCN1c1nc2c(c(-c3nc4ccc(C(N)=O)cc4s3)n1)CCC2 [Example 857, (S)-2-(2-(2-methylazetidin-1-yl)-6,7-dihydro-5H-cyclopenta[d]pyrimidin-4-yl)benzo[d]thiazole-6-carboxamide] |
| – | – | 43.6 nM | 18 nM | C[C@H]1CCN1c1nc2c(c(-c3ccc4c(=O)[nH]c(=O)n(C)c4c3)n1)CCC2 [Example 858, (S)-1-methyl-7-(2-(2-methylazetidin-1-yl)-6,7-dihydro-5H-cyclopenta[d]pyrimidin-4-yl)quinazoline-2,4(1H,3H)-dione] |
| – | – | 301 nM | 434 nM | C[C@H]1CCN1c1nc2c(c(-c3ccc4c(c3)CCNC4C(F)(F)F)n1)CCC2 (stereo partly drawn) [Example 859, 6-(2-((S)-2-methylazetidin-1-yl)-6,7-dihydro-5H-cyclopenta[d]pyrimidin-4-yl)-1-(trifluoromethyl)-1,2,3,4-tetrahydroisoquinoline] |
